Test results taken from patent US20260248810A1, “COMPOSITIONS FOR TREATING A SUBJECT FROM SEXUAL DYSFUNCTION” (priority 2023, published 2026).

Key:
[1] = Plasma total and free testosterone after sublingual androgen intake in two male patients; details: blood plasma 15 minutes after sublingual intake, 5 mg T, or 5 mg T + 5 mg DHT; for Free T: measured, not calculated; for concentration at 15 min: human, plasma, other: sublingual, 5 mg, Total T
Procedure: (§1) The first example concerns two male heterosexual patients with sexual problems (erection problems and reduced sexual arousal). […] This prompted two alternative forms of treatment. The first treatment involved taking 5 mg sublingual testosterone (in a solution consisting of alcohol, denaturalized water, testosterone and cyclodextrins) followed 2.5 hours later by taking Viagra (sildenafil 50 mg). The second treatment consisted of simultaneously taking 5 mg sublingual testosterone and 5 mg sublingual dihydrotestosterone (DHT) (in a solution consisting of alcohol, denaturalized water, DHT and cyclodextrins), followed after 2.5 hours by taking Viagra (50 mg). The testosterone and DHT solutions were prepared by a pharmacist on the request of a general practitioner. On both treatment days, patients were asked to engage in sexual activity between 1 and 1.5 hours after taking Viagra. […] Patients were also asked to answer some questions about their sexual arousal immediately before and within an hour after sexual activity.
The table below describes the effects of the different treatments on ‘total testosterone’ and ‘free testosterone (i.e. measured, not calculated)’ for both patients: […]

[2] = sublingually with cyclodextrins; women about 0.1-2 mg, men about 0.5-20 mg; cited from earlier work
[3] = tested on: male heterosexual patients with sexual problems (erection problems and reduced sexual arousal); test: Self-rated sexual arousal (scale 1 to 10) before and during sexual activity, sublingual androgen(s) followed by Viagra; assay type: in vivo, human; details: history of the two male patients before the alternative treatments
Procedure: as §1

[4] = cited from earlier work

With C[C@]12CC[C@H]3[C@@H](CCC4=CC(=O)CC[C@@]43C)[C@@H]1CC[C@@H]2O [T, 17-β-hydroxyandrost-4-en-3-one] the “Free T” value ([1]; Patient 1) was 440 pml/L, the “Free T” value ([1]; Patient 2) was 1030 pml/L and the concentration at 15 min ([1]; Patient 1) was 28.7 nM. For the same molecule, the concentration at 15 min ([1]; Patient 2) was 43.9 nM and the “time to pharmacological peak in testosterone” value [2] was “about 15 minutes”.
For CCCc1nn(C)c2c(=O)[nH]c(-c3cc(S(=O)(=O)N4CCN(C)CC4)ccc3OCC)nc12 [Viagra, sildenafil], the “effect of the usual treatments on the sexual problems” value [3] was “little or no effect”.
In the case of CC[C@H](C)[C@@H]1NC(=O)[C@H](Cc2ccc(O)cc2)NC(=O)[C@@H](N)CSSC[C@@H](C(=O)N2CCC[C@H]2C(=O)N[C@@H](CC(C)C)C(=O)NCC(N)=O)NC(=O)[C@H](CC(N)=O)NC(=O)[C@H](CCC(N)=O)NC1=O [oxytocin], the “time of behavioral and neural effects after administration” value ([4]; dosages between 20-50 IE) is listed as 15 to 90 min, the “T-max of oxytocin levels in the blood circulation” value ([4]; intranasal administration) is listed as “approximately 15 minutes” and the “return of oxytocin levels to baseline” value ([4]; intranasal administration) is listed as “approximately 90 minutes”.
